Test results as given in patent US10973912B2, “Treatment for myopathy” (Children's Medical Center Corporation, priority 2015, dated 2021).
Values joined by “and” are separate entries in the source; they are usually repeats but may differ in a detail not shown here. Equal values may be shown once. Where a name gives a salt, the structure may show the parent alone.

Tests used:
[1] = system: ryr1b homozygous mutant zebrafish; format: in vivo, zebrafish (Danio rerio); details: for touch-evoked escape behaviors / mobility of ryr1b mutants: treated from 1 dpf, scored and genotyped at 5 dpf
Method: In two independent experiments, two pools of 20 larvae from heterozygous ryr1b matings were treated with DMSO or with one of three different concentrations of NIF (1.0-100.0 μg/mL) at 1 dpf and evaluated in terms of touch-evoked escape behaviors at 5 dpf (n=40). Following phenotypic scoring, all living embryos were genotyped using three-primer genomic PCR. Swimming scores for larvae genotype-confirmed as ryr1b homozygous mutants are shown as a percentage of the total number of living larvae in each dose category: 1=poor swimming; 2 or 3=moderate or wild-type swimming. NIF improved mobility of ryr1b mutants at a dose of 10 μg/mL. […] Phospho-Stat3 band intensities were normalized to β-Actin control bands and quantified in Image J (NIH).
FIGS. 12A-12C show a ketoprofen dose-response and proposed mechanistic link. […] FIG. 12B is a dose-response graph for ketoprofen (KETO). Two pools of 20 larvae from heterozygous ryr1b matings were treated with DMSO or four different concentrations of KETO (1.0-100.0 μg/mL) at 1 dpf and evaluated in terms of touch-evoked escape behaviors at 5 dpf (n=40). Following phenotypic scoring, all living embryos were genotyped using three-primer genomic PCR. Swimming scores for larvae genotype-confirmed as ryr1b homozygous mutants are shown as a percentage of the total number of living larvae in each dose category: 1=poor swimming, 2 or 3=moderate or wild-type swimming. […] Phosphorylated STATs form dimers, translocate to nuclei, and from there are associated with various transcriptional activities. Dubowitz, V. and Sewry, C. (2006) Muscle Biopsy: A Practical Approach. Elsevier-Health Sciences Division.
The relatively relaxed zebrafish was initially identified due to a spontaneous autosomal recessive mutation within the ryr1b gene^30. Specifically, ryr1b mutants carry a 4046 base pair (bp) DNA insertion in the intron between exons 48 and 49 that includes an additional 32 bp sequence found in mutant cDNA (FIG. 3)^30. Genotypes of individual embryos were examined using three-primer genomic PCR, with an expected wild-type band of 1,668 bp and a mutant band of 653 bp. Primer sequences were as follows: ryr1b #1 (forward): 5′-[…]-3′ (SEQ ID NO: 4); ryr1b #2 (reverse): 5′-[…]-3′ (SEQ ID NO: 5); and ryr1b #3 (reverse): 5′-[…]-3′ (SEQ ID NO: 6).
The primary and secondary screens only tested chemical pools and individual compounds at a single concentration (2.0 μg/mL). Although beneficial in a high-throughput context, this approach can result in false positives and false negatives. […] For analysis, pools of 20 larvae obtained from heterozygous ryr1b matings were treated in duplicate with DMSO or with one of three different concentrations of NIF (1.0-100.0 μg/mL) at 1 dpf and scored for touch-evoked escape behaviors at 5 dpf. All scored larvae were then genotyped using three-primer genomic PCR. […] Next, hit expansion was used to verify JAK-STAT as a potential molecular pathway involved in ryr1b mutant pathology. […] A higher effective dose for 5,15-DPP was consistent with the IC50 measurements reported for each compound^40,41.

[2] = system: satellite cell expansion and muscle generation; details: in vitro and in mice, aging and dystrophic mouse models; cited from earlier work
[3] = system: ryr1b homozygous mutant zebrafish; assay: Secondary screen of individual chemicals in ryr1b zebrafish (vitality: survival and touch-evoked escape behavior); format: in vivo, zebrafish (Danio rerio); parameters: key: vitality score, theoretical range 0–60; DMSO controls expected ~50; details: 2.0 μg/mL from 1 dpf, scored at 5 dpf; average of two replicates of 20 larvae from heterozygous ryr1b matings; score=(#Dead*0)+(#ryr1b*1)+(#Moderate*2)+(#Wild-type*3), max 60, expected 50 in DMSO controls
Method: Each scored compound represents an average of two replicates, consisting of 20 larvae from heterozygous ryr1b matings (n=40). Larvae obtained from wild-type AB matings served as positive controls. […] Significance was determined by pairwise comparisons between control and experimental pools using a Student's t-test. Vitality score=(#Dead*0)+(#ryr1b*1)+(#Moderate*2)+(#Wild-type*3). Standard deviations shown for positive and negative controls were calculated based on results from 5 and 21 independent experiments, respectively.
Primary screen. For the primary screen, twenty embryos (1 dpf) resulting from a mating of heterozygous ryr1b zebrafish were manually sorted into 48-well plates containing 250 μL embryo 1×E3 medium (5.0 mM NaCl, 0.17 mM KCl, 0.33 mM CaCl2*2H2O, 0.33 mM MgSO4*7H2O) and four pooled chemicals from the Prestwick2 chemical library. Each chemical pool was assayed in duplicate using embryos from two independent clutches, for a total of 24 distinct pools tested per plate (FIG. 1). The chemicals were dissolved to a final concentration of 2.0 μg/mL and 0.4% DMSO, which is similar to concentrations other groups have used in zebrafish studies^37,38. As a negative control, twenty embryos from each clutch were cultured without chemicals in vehicle only (0.4% DMSO) (FIG. 1). Larvae obtained from wild-type (Oregon AB) matings served as positive controls in separate plates. All plates containing embryos were incubated at 28.5° C. and maintained as initially treated for 5 days. Dead embryos were removed from wells when observed during the first 4 days of the study. On day 5, dead or “motion-dead” larvae were scored alongside living larvae.
At 5 dpf, pools were scored for their ability to improve the survival and touch-evoked escape behaviors of ryr1b homozygous mutants using the following numeric scoring system: 3=4-6 cm, fast (wild-type); 2=2-4 cm (moderate); 1=<2 cm, slow (ryr1b); 0=no movement (dead) (FIG. 2A). Survival, swimming, and combined endpoints of the primary screen were then examined for their ability to distinguish positive from negative controls. […] Taking into account both experimental replicates (n=40), hit pools contained at least 37 alive larvae on day 5 (i.e., 70-100% of the larvae assumed to be ryr1b mutants survived the duration of the study), and were selected for analysis in a secondary screen.
In the secondary screen, hit pools were separated and tested as 68 individual chemicals. Screening was performed precisely as described for the primary screen with few modifications. Embryos were raised in wells containing 750 μL 1×E3 medium, as opposed to 250 μL, although the final concentration of each compound was maintained at 2.0 μg/mL. […] Vitality scores, weighting survival and swimming ratios appropriately, were calculated as (#Dead*0)+(#ryr1b*1)+(#Moderate*2)+(#Wild-type*3). Theoretical maximum and minimum scores were 60 and 0, respectively, with an expected score of 50 in DMSO-treated controls. Secondary screen hits (P<0.05), considered “candidate” compounds, are currently being examined in dose-response and long-term studies.
The second tier of the chemical screen was performed two years following the primary screen, with a fully established ryr1b^+/− line. Healthier clutches tended to result in better survival of homozygous ryr1b mutants. Median mutant life spans more accurately adhered to the 7-15 day estimate previously published^30. Therefore, in the secondary screen, hit chemical pools were separated into individual compounds and each of 68 total compounds was examined for its ability to positively influence both ryr1b survival and motor function (referred to in combination as “vitality”). […] These included two anti-inflammatory agents (sulfasalazine and ketoprofen), two monoamine oxidase inhibitors (pargyline hydrochloride and tranylcypromine hydrochloride), and two ion channel modulators (metolazone and nimodipine).

[4] = system: IL-6; details: in vitro; cited from earlier work
[5] = system: ryr1b phenotype; details: zebrafish, in vivo; cited from earlier work
[6] = system: myofiber apoptosis and muscle strength; details: mouse, in vivo; cited from earlier work
[7] = system: IL-6; details: skeletal muscle; cited from earlier work

## C1=Cc2nc1cc1ccc([nH]1)c(-c1ccccc1)c1nc(cc3ccc([nH]3)c2-c2ccccc2)C=C1 [5,15-DPP, 5,15-diphenylporphyrin]
[1]; 5 dpf, 25% mutants expected
  genotyped ryr1b larvae in treated pools (evidence of toxicity): less than 25%
[1]; treated at 1 dpf, touch-evoked escape behaviors at 5 dpf, tested 1.0-100.0 μg/mL
  dose that improved mobility of ryr1b mutants / optimal activity: 100.0 µg/mL and 100 µg/mL
[1]
  touch-evoked escape behaviors / mobility of ryr1b mutants: ryr1b mutants were among larvae that exhibited wild-type touch-evoked escape behaviors
[2]
  satellite cell expansion and muscle generation: promotes satellite cell expansion and rescues defects in muscle generation

## N#C/C(=C/c1ccc(O)c(O)c1)C(=O)NCc1ccccc1 [AG490]
[2]
  satellite cell expansion and muscle generation: promotes satellite cell expansion and rescues defects in muscle generation

## CCCCOc1cc(C(=O)OCCN(CC)CC)ccc1N [Benoxinate hydrochloride]
[3]
  Vitality Score: 52.5

## CC(=O)N(CC(O)CO)c1c(I)c(C(=O)NCC(O)CO)c(I)c(C(=O)NCC(O)CO)c1I (stereo not drawn) [Iohexol]
[3]
  Vitality Score: 53.5

## CC(C(=O)O)c1cccc(C(=O)c2ccccc2)c1 (stereo not drawn) [Ketoprofen]
[4]
  production of IL-6: inhibits the production of IL-6 in vitro
[1]
  touch-evoked escape behaviors / mobility of ryr1b mutants: confirmed a relationship between ketoprofen and improvements in ryr1b mobility
[3]
  Vitality Score: 52.0

## Cc1ccccc1N1C(=O)c2cc(S(N)(=O)=O)c(Cl)cc2NC1C (stereo not drawn) [Metolazone]
[3]
  Vitality Score: 55.5

## Clc1ccc(COC(Cn2ccnc2)c2ccc(Cl)cc2Cl)c(Cl)c1 (stereo not drawn) [Miconazole]
[3]
  Vitality Score: 54.0

## CC(=O)N[C@@H](CS)C(=O)O [N-acetylcysteine]
[5]
  effect on ryr1b phenotype: shown to ameliorate select aspects of the ryr1b phenotype

## COCCOC(=O)C1=C(C)NC(C)=C(C(=O)OC(C)C)C1c1cccc([N+](=O)[O-])c1 (stereo not drawn) [Nimodipine]
[3]
  Vitality Score: 52.0

## C#CCN(C)Cc1ccccc1 [Pargyline hydrochloride]
[6]
  myofiber apoptosis and muscle strength: significantly decreases myofiber apoptosis and increases muscle strength
[3]
  Vitality Score: 58.0

## O=C(O)c1cc(/N=N/c2ccc(S(=O)(=O)Nc3ccccn3)cc2)ccc1O [Sulfasalazine]
[3]
  Vitality Score: 57.0
[7]
  IL-6 release: inhibit IL-6 release in skeletal muscle

## Clc1ccccc1CN1CCc2sccc2C1 [Ticlopidine hydrochloride]
[3]
  Vitality Score: 54.0

## N[C@@H]1C[C@H]1c1ccccc1 [Tranylcypromine hydrochloride]
[3]
  Vitality Score: 52.0

## CN(C)C/C=C(/c1ccc(Br)cc1)c1cccnc1 [Zimelidine dihydrochloride monohydrate]
[3]
  Vitality Score: 55.0
